Test results taken from ChEMBL document CHEMBL5537122, “Design, synthesis, and biological evaluation of 4-(2-fluorophenoxy)-7-methoxyquinazoline derivatives as dual EGFR/c-Met inhibitors for the treatment of NSCLC” (Eur J Med Chem, 2024).

Experiments:
A549 [1] = assay: Induction of cell cycle arrest in human A549 cells overexpressing c-MET assessed as accumulation of cells at G1/G0 phase at 1 uM incubated for 24 hrs by RNase A/propidium iodide staining based flow cytometric analysis (reference value: 49.24 %); format: functional
A549 [2] = assay: Induction in apoptosis in human A549 cells overexpressing c-MET assessed as necrotic cells at 1 uM incubated for 24 hrs by Annexin V-FITC/Propidium Iodide staining based flow cytometry analysis (reference value: 3.22 %); format: functional
A549 [3] = assay: Induction of cell cycle arrest in human A549 cells overexpressing c-MET assessed as accumulation of cells at S phase at 1 uM incubated for 24 hrs by RNase A/propidium iodide staining based flow cytometric analysis (reference value: 37.87 %); format: functional
NCI-H1975 [4] = assay: Induction in apoptosis in human NCI-H1975 cells assessed as necrotic cells at 1 uM incubated for 24 hrs by Annexin V-FITC/Propidium Iodide staining based flow cytometry analysis (reference value: 1.42 %); format: functional
L02 [5] = assay: Induction in apoptosis in human L02 cells assessed as late apoptotic cells at 1 uM incubated for 24 hrs by Annexin V-FITC/Propidium Iodide staining based flow cytometry analysis (reference value: 0.36 %); format: toxicity, cell-based; settings: l02, 24 h
A549 [6] = assay: Induction in apoptosis in human A549 cells overexpressing c-MET assessed as late apoptotic cells at 1 uM incubated for 24 hrs by Annexin V-FITC/Propidium Iodide staining based flow cytometry analysis (reference value: 7.59 %); format: functional
NCI-H1975 [7] = assay: Induction in apoptosis in human NCI-H1975 cells assessed as viable cells at 1 uM incubated for 24 hrs by Annexin V-FITC/Propidium Iodide staining based flow cytometry analysis (reference value: 91.58 %); format: functional; settings: read-out: Activity
A549 [8] = assay: Induction in apoptosis in human A549 cells overexpressing c-MET assessed as early apoptotic cells at 1 uM incubated for 24 hrs by Annexin V-FITC/Propidium Iodide staining based flow cytometry analysis (reference value: 7.27 %); format: functional
L02 [9] = assay: Induction in apoptosis in human L02 cells assessed as necrotic cells at 1 uM incubated for 24 hrs by Annexin V-FITC/Propidium Iodide staining based flow cytometry analysis (reference value: 6.63 %); format: toxicity, cell-based; settings: l02, 24 h
[10] = Induction in apoptosis in human L02 cells assessed as viable cells at 1 uM incubated for 24 hrs by Annexin V-FITC/Propidium Iodide staining based flow cytometry analysis (reference value: 92.75 %); format: toxicity, cell-based; settings: read-out: Activity
[11] = Hemolytic activity in sheep erythrocytes at 64 ug/ml incubated for 2 hr by UV spectrophotometer relative to control; format: toxicity, cell-based, Ovis aries, Erythrocyte; settings: at 64 µg/mL, read-out: Activity
NCI-H1975 [12] = assay: Induction in apoptosis in human NCI-H1975 cells assessed as early apoptotic cells at 1 uM incubated for 24 hrs by Annexin V-FITC/Propidium Iodide staining based flow cytometry analysis (reference value: 2.54 %); format: functional
A549 [13] = assay: Induction in apoptosis in human A549 cells overexpressing c-MET assessed as viable cells at 1 uM incubated for 24 hrs by Annexin V-FITC/Propidium Iodide staining based flow cytometry analysis (reference value: 81.92 %); format: functional; settings: read-out: Activity
L02 [14] = assay: Induction in apoptosis in human L02 cells assessed as early apoptotic cells at 1 uM incubated for 24 hrs by Annexin V-FITC/Propidium Iodide staining based flow cytometry analysis (reference value: 0.26 %); format: toxicity, cell-based; settings: l02, 24 h
NCI-H1975 [15] = assay: Induction in apoptosis in human NCI-H1975 cells assessed as late apoptotic cells at 1 uM incubated for 24 hrs by Annexin V-FITC/Propidium Iodide staining based flow cytometry analysis (reference value: 4.46 %); format: functional
Homo sapiens = organism: Homo sapiens; assay: Inhibition of EGFR T790/C797S mutant (unknown origin) at 10 uM relative to control
[16] = biological target: Epidermal growth factor receptor (Homo sapiens, UniProt P00533, L858R); assay: biochemical
A549 [17] = assay: Antiproliferative activity against human A549 cells overexpressing c-Met and EGFR assessed as reduction in cell viability incubated for 72 hrs by MTT assay; format: functional, cell-based; settings: A549, 72 h
[18] = biological target: Epidermal growth factor receptor (Homo sapiens, UniProt P00533); assay: biochemical
Description: Inhibition of N-terminal GST tagged human recombinant EGFR (695 to end residues) expressed in baculovirus infected Sf9 cells using Poly (4:1 Glu, Tyr) as substrate incubated for 60 mins in presence of ATP by ADP-Glo luminescent assay

NCI-H1975 [19] = assay: Antiproliferative activity against human NCI-H1975 cells overexpressing c-Met and EGFR assessed as reduction in cell viability incubated for 72 hrs by MTT assay; format: functional, cell-based; settings: NCI-H1975, 72 h
[20] = biological target: Hepatocyte growth factor receptor (Homo sapiens, UniProt P08581); assay: biochemical
Description: Inhibition of N-terminal GST tagged human recombinant c-Met (956 to end residues) expressed in baculovirus infected Sf9 cells using Poly (4:1 Glu, Tyr) as substrate incubated for 60 mins in presence of ATP by ADP-Glo luminescent assay

PC-9 = assay: Antiproliferative activity against human PC-9 cells overexpressing c-Met and EGFR assessed as reduction in cell viability incubated for 72 hrs by MTT assay; format: functional, cell-based; settings: PC-9, 72 h

Epidermal growth factor receptor (Homo sapiens, UniProt P00533), sequence (P00533 whole entry): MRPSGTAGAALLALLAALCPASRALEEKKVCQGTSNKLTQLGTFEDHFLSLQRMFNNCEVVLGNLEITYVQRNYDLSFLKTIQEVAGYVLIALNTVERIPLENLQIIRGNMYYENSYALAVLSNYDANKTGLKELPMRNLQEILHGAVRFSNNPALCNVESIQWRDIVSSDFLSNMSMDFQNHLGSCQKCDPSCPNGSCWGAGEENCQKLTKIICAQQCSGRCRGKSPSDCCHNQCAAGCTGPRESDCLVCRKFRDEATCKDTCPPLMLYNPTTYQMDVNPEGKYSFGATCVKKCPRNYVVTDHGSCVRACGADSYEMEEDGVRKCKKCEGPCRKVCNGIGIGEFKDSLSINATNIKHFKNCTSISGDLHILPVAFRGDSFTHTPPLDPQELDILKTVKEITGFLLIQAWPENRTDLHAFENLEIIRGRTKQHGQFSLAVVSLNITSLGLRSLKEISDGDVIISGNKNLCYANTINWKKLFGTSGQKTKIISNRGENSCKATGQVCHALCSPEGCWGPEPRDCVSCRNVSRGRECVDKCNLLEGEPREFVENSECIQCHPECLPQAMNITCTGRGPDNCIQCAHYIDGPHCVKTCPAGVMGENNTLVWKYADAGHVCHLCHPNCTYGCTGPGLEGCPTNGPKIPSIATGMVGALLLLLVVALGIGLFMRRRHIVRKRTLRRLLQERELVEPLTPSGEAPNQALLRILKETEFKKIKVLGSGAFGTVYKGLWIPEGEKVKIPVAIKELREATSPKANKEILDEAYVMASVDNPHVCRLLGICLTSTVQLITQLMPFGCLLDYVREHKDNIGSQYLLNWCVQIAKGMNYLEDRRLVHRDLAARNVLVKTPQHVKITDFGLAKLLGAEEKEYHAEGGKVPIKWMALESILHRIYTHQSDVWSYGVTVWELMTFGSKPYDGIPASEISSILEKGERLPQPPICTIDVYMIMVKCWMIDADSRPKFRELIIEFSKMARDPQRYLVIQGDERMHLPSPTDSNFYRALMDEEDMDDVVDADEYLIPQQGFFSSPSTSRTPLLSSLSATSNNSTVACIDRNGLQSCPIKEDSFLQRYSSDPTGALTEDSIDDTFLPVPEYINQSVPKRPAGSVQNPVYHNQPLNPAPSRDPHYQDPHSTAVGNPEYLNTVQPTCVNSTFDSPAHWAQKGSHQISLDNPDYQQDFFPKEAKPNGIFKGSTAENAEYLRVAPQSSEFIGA
Epidermal growth factor receptor (Homo sapiens, UniProt P00533, L858R), sequence (P00533 25-1210 L858R limits assumed): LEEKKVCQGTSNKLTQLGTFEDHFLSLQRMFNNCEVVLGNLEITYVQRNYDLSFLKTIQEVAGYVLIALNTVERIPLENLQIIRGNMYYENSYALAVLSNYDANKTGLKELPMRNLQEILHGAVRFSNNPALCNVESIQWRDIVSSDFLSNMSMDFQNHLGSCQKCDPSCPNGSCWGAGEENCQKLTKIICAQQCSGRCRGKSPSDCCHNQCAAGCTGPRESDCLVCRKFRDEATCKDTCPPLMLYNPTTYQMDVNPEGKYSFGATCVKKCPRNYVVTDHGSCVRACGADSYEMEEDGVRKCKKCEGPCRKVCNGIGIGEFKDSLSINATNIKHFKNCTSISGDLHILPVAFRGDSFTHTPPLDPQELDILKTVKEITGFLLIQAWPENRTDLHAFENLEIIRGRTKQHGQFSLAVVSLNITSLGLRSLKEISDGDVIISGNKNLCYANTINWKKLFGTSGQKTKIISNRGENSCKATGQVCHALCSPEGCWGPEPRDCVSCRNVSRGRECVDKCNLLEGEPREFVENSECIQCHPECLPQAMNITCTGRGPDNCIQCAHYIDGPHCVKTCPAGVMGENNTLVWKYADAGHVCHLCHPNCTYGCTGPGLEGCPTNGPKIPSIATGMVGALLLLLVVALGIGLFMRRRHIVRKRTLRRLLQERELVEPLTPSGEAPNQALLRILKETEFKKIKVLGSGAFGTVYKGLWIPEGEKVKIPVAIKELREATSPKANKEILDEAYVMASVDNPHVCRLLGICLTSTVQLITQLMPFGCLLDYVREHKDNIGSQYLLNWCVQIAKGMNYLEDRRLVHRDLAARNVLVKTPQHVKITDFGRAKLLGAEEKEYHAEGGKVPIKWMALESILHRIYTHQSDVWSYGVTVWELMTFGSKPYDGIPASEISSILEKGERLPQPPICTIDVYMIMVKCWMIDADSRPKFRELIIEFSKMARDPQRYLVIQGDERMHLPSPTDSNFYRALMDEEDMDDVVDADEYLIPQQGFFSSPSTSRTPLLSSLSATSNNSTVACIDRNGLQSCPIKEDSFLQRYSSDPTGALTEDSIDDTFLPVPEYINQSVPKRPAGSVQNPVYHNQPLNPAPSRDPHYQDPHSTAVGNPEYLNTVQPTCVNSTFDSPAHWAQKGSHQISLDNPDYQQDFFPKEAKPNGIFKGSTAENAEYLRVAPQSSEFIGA
Hepatocyte growth factor receptor, sequence (P08581 whole entry): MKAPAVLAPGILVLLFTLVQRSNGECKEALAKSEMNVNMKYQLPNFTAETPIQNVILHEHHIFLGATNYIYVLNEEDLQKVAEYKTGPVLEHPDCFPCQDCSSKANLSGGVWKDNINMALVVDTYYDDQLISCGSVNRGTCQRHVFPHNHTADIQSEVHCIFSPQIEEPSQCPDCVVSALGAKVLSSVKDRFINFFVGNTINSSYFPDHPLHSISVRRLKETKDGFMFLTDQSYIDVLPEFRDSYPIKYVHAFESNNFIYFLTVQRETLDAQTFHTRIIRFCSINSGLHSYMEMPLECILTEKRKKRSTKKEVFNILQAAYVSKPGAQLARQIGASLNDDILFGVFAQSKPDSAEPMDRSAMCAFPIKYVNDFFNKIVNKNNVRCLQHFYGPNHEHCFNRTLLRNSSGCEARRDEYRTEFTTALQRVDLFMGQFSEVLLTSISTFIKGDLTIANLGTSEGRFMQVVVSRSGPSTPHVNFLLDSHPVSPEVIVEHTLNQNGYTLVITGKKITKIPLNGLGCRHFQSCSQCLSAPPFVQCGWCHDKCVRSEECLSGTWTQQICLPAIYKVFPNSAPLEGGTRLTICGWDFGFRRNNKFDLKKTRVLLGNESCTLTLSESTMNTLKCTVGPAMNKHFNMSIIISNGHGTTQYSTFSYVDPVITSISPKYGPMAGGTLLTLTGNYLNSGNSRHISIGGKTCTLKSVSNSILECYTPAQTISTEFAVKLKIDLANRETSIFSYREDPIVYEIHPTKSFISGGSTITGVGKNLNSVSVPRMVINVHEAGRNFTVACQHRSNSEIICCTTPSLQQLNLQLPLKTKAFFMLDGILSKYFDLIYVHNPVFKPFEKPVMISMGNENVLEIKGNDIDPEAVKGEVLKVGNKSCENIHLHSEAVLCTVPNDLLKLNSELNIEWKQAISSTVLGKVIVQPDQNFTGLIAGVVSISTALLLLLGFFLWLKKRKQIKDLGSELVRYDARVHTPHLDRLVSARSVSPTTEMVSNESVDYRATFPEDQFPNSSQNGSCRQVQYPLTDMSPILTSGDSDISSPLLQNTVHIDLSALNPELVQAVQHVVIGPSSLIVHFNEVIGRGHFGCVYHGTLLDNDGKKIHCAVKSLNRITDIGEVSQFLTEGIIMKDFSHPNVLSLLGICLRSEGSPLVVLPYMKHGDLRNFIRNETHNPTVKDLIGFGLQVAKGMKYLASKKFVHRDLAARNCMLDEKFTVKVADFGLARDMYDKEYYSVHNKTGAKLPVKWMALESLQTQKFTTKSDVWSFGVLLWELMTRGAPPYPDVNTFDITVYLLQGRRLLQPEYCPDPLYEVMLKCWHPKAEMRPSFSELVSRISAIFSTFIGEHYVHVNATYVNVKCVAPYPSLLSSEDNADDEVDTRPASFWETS

Structure (SMILES)	IC50 [16] [µM]	IC50 (A549 [17]) [µM]	IC50 [18] [µM]	IC50 (NCI-H1975 [19]) [µM]	IC50 [20] [µM]	IC50 (PC-9) [µM]	also measured
CN(C)C/C=C/C(=O)Nc1cc2c(Nc3ccc(F)c(Cl)c3)ncnc2cc1O[C@H]1CCOC1 [AFATINIB]							Activity (A549 [1]): 52.24%; Activity (A549 [2]): 5.8%; Activity (A549 [3]): 36.86%; Activity (NCI-H1975 [4]): 1.88%; Activity (L02 [5]): 0.26%; Activity (A549 [6]): 12.21%; viability at 1 µM (NCI-H1975 [7]): 89.7%; Activity (A549 [8]): 9.36%; Activity (L02 [9]): 3.78%; viability at 24 h, 1 µM [10]: 95.8%; hemolysis at 2 h, 64 ug/ml [11]: < 5%; Activity (NCI-H1975 [12]): 2.21%; viability at 1 µM (A549 [13]): 72.6%; Activity (L02 [14]): 0.19%; Activity (NCI-H1975 [15]): 6.17%
COc1cc2c(Oc3ccc(NC(=O)C4(C(=O)Nc5ccc(F)cc5)CC4)cc3F)ccnc2cc1OCCCN1CCOCC1							inhibition (Homo sapiens): < 50%
CCCC(=O)Nc1cc2c(Oc3ccc(NC(=O)CCCc4ccc(OC)cc4)cc3F)ncnc2cc1OC	8.96	7.74	7.64	16.2	0.607	> 50	
C=CC(=O)Nc1cc2c(Oc3ccc(NC(=O)CCCc4ccsc4)cc3F)ncnc2cc1OC	> 10	5.14	> 10	4.72	0.693	0.99	
CCC(=O)Nc1cc2c(Oc3ccc(NC(=O)CCCc4ccsc4)cc3F)ncnc2cc1OC	> 10	12.4	> 10	> 50	0.579	4.03	
C/C=C/C(=O)Nc1cc2c(Oc3ccc(NC(=O)c4c(-c5c(Cl)cccc5Cl)noc4C)cc3F)cccc2cc1OC	> 10	19.5	> 10	17.2	3.38	6.12	
CCC(=O)Nc1cc2c(Oc3ccc(NC(=O)CCCc4ccc(C)cc4)cc3F)ncnc2cc1OC	> 10	3.29	8.43	19.1	1.18	7.84	
CCC(=O)Nc1cc2c(Oc3ccc(NC(=O)CCCc4ccc(F)cc4)cc3F)ncnc2cc1OC	5.31	3.68	6.87	1.31	0.354	3.1	
CCC(=O)Nc1cc2c(Oc3ccc(NC(=O)CCCc4ccccc4)cc3F)ncnc2cc1OC	2.27	7.03	1.44	3.98	0.444	2.6	
C=CC(=O)Nc1cc2c(Oc3ccc(NC(=O)c4sc(-c5ccccc5)nc4C)cc3F)cccc2cc1OC	0.518	1.94	0.173	2.4	0.0386	2.33	
COc1cc2ncnc(Oc3ccc(NC(=O)CCCc4ccccc4)cc3F)c2cc1NC(=O)CCC(C)C	> 10	> 50	> 10	13.7	1.48	33.7	
CCCCC(=O)Nc1cc2c(Oc3ccc(NC(=O)CCCc4ccsc4)cc3F)ncnc2cc1OC	> 10	> 50	> 10	37.6	1.56	> 50	
COc1cc2ncnc(Oc3ccc(NC(=O)CCCc4ccc(F)cc4)cc3F)c2cc1NC(=O)CCC(C)C	> 10	> 50	> 10	12	0.712	> 50	
COc1cc2ncnc(Oc3ccc(NC(=O)CCCc4ccc(C)cc4)cc3F)c2cc1NC(=O)CCC(C)C	> 10	> 50	> 10	27.5	3.07	> 50	
CCC(=O)Nc1cc2c(Oc3ccc(NC(=O)NCCC4CCCCC4)cc3F)ncnc2cc1OC	> 10	2.43	4.69	2.94	0.143	> 50	
CCC(=O)Nc1cc2c(Oc3ccc(NC(=O)c4c(-c5c(Cl)cccc5Cl)noc4C)cc3F)cccc2cc1OC	> 10	7.95	> 10	4.91	3.48	5.22	
CCCC(=O)Nc1cc2c(Oc3ccc(NC(=O)CCCc4ccsc4)cc3F)ncnc2cc1OC	> 10	> 50	> 10	> 50	0.959	13.8	
CCC(=O)Nc1cc2c(Oc3ccc(NC(=O)NCCc4csc(Br)c4)cc3F)ncnc2cc1OC	> 10	8.42	> 10	11.1	0.247	4.97	
C/C=C/C(=O)Nc1cc2c(Oc3ccc(NC(=O)CCCc4ccsc4)cc3F)ncnc2cc1OC	> 10	21.7	> 10	> 50	1.39	1.63	
